According to US9492510B2, “Composition and method for inhibiting tumor cell growth” (St. Jude Children's Research Hospital, priority 2006, dated 2016):
Entries after “also recorded” stand apart in the source; their conditions may differ. Where two headings read alike, the source gives them in different places.

Experiments:
topoisomerase I = details: cited from earlier work
U373MG cells [1] = experiment: Growth inhibition by CPT-11 of U373MG cells; type: cell-based, human
Description: Experiments were also performed in human brain tumor cells (U373MG) where the growth of the cells was examined in cells that expressed the mutant form of the human CE enzyme.
(§1) Experiments were also performed to determine whether cells expressing a secreted form of hCElm6 (SEQ ID NO:16) produced media that had CE activity.
(§2) Transfection of Cell Lines. Transient transfection of Cos7 cells was achieved by electroporation (Potter, et al. 1998. Cancer Res. 52:2646-2651). For the generation of stable cell lines, cDNAs were ligated into pIRESneo and U373MG cells were electroporated under similar conditions. Transfectants were selected in media containing 400 μg/ml of G418. Since the CE cDNA was linked via an internal ribosome entry sequence (IRES) to the neomycin gene, selection of individual G418-resistant clones was not necessary.
(§3) Construction of Adenovirus. Replication-deficient adenovirus expressing hCElm6 or rCE were constructed using standard protocols (Wierdl, et al. 2001. Cancer Res. 61:5078-5082). Multiplicity of infection (moi) was defined as the number of plaques produced in 1×10^6 293 cells in a total volume of 1 ml of media after incubation with virus for 1 hour.
(§4) Growth Inhibition Assays.

[2] = biological target: T1, hCE1 variant hCE1m6 (hCE1mut6; L362M, M363L, K459R, F448Y, Q449R, L358I, S364G, Q362 insertion), SEQ ID NO:3 (Homo sapiens, UniProt P23141, F449Y/K460R/L358I/L363M/M364L/Q450R/S365G); experiment: Kinetics of CPT-11 hydrolysis by purified hCE1m6; type: biochemical
T1 sequence (P23141 18-567 L358I/L363M/M364L/S365G/F449Y/Q450R/K460R): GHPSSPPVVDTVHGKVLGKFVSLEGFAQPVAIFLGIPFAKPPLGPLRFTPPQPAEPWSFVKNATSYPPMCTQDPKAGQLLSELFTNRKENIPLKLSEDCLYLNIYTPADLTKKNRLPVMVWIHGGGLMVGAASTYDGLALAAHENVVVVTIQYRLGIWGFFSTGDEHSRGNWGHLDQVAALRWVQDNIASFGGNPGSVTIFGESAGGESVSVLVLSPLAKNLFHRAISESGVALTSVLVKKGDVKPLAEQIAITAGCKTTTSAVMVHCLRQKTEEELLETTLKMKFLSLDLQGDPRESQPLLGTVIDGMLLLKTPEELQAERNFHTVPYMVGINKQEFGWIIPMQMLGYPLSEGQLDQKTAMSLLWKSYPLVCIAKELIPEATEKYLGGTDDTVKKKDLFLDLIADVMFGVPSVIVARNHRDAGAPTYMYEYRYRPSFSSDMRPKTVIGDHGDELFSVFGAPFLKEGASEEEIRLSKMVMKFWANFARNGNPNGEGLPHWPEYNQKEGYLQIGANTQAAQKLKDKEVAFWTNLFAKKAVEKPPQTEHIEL
From the text: (§5) These experiments determined the Km, Vmax, kcat and kcat/Km values for the different enzymes.
(§6) Protein Purification. […] For hiCE, an alternative purification procedure was developed using DEAE chromatography and elution with a pH/salt gradient.
(§7) Determination of Kinetic Parameters for Substrate Hydrolysis.

[3] = biological target: T2, hiCE (human intestinal carboxylesterase) (Homo sapiens, UniProt O00748); experiment: Kinetics of CPT-11 hydrolysis by purified hiCE; type: biochemical
T2 sequence (O00748 27-559): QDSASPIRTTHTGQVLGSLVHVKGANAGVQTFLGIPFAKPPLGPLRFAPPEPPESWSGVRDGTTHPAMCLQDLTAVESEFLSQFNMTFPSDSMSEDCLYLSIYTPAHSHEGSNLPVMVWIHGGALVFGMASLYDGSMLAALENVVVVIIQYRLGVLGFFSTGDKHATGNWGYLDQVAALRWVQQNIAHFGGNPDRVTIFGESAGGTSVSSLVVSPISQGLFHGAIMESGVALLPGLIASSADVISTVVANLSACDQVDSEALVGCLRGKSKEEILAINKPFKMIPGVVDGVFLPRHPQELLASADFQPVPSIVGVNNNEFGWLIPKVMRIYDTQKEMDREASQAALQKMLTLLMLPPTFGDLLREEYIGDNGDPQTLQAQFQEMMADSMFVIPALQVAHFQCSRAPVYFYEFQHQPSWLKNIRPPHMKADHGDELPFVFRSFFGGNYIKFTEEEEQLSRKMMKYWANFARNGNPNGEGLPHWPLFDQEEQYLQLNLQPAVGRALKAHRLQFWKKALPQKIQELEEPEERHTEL
From the text: as §5, §6, §7

COS7 cells = experiment: Growth inhibition of transiently transfected Cos7 cells by CPT-11; type: cell-based, African green monkey; details: Chlorocebus sabaeus
Description: as §2, §4

U373MG cells [4] = experiment: Growth inhibition of U373MG cells expressing intracellular or secreted hCE1mut6 by CPT-11; type: cell-based; details: Homo sapiens, U373 MG, read-out: IC50 for CPT-11
Description: as §1, §4

Rh30 cells = experiment: Growth inhibition of adenovirus-transduced Rh30 cells by CPT-11; type: cell-based; details: Homo sapiens
Description: as §3, §4

SK-N-As cells = experiment: Growth inhibition of adenovirus-transduced SK-N-As cells by CPT-11; type: cell-based; details: Homo sapiens
Description: as §3, §4

[5] = tested on: hCE1 (human liver carboxylesterase), wild type, SEQ ID NO:1; details: CPT-11 hydrolysis; cited from earlier work
[6] = tested on: rCE (rabbit liver carboxylesterase), wild type, SEQ ID NO:2; details: CPT-11 hydrolysis; cited from earlier work
[7] = CPT-11 administered to humans; cited from earlier work
[8] = mice, within the first hour of dosing; cited from earlier work
[9] = patients; cited from earlier work
[10] = Kinetic parameters for CPT-11 hydrolysis by purified recombinant CEs; type: biochemical; details: hCE1 and rCE values rest on cited data
Description: To directly compare the abilities of the mammalian CEs to hydrolyze CPT-11, a series of biochemical studies were carried out using the purified proteins in vitro. These experiments determined the Km, Vmax, kcat and kcat/Km values for the different enzymes.
as §6, §7

[11] = In vitro stability of purified CE stored at room temperature in 50 mM Hepes; type: physicochemical; details: purified protein in 50 mM Hepes pH7.4, room temperature
Description: Enzymes were aliquoted in 50 mM Hepes, stored at 20° C. and CE activities were determined at various time intervals, up to 11 weeks. Data are expressed as the amount of active CE remaining as compared to day 0.
Therefore, the loss of CE activity was evaluated in preparations of these proteins, as well as hCElm6 that had been stored at room temperature. In these studies, purified protein was aliquoted in 50 mM Hepes pH7.4, and enzyme activity was determined over a period of 12 weeks.

[12] = CE activity (o-NPA) in human tumor cell lines expressing CE after plasmid transfection or adenoviral transduction; type: biochemical
From the text: […], it was observed that expression of hiCE following plasmid-mediated transfection was frequently lower than that seen with rCE or […]. […] Since expression of the transgene from this expression vector is co-regulated with the neo gene via an IRES sequence, selection with similar concentrations of G418 should result in cell lines that express approximately equal levels of recombinant protein. However, the average levels of CE activity in U373hiCE, U373hCE1 and U373hCE1m6 cells were 287.6±76.6, 1077.1±77.5, and 466.5±52.6 nmoles/min/mg, respectively.
Carboxylesterase Assays. CE activity was determined using a spectrophotometric assay with 3 mM o-nitrophenyl acetate (o-NPA) as a substrate (Potter, et al. 1998. Cancer Res. 52:2646-2651; Wierdl, et al. 2001. Cancer Res. 61:5078-5082; Beaufay, et al. 1974. J. Cell Biol. 61:188-200). Data were expressed as nmoles o-nitrophenol produced per minute per milligram of protein. To correct for differences in CE expression within transfected cells, the enzyme activity values were corrected for the level of immuno-reactive CE protein as determined from western analyses.
as §2, with “necessary. Routinely, whole cell sonicates obtained from these pooled populations of cells contained 200-500 nmoles/min/mg of CE activity.” for “necessary.”
as §3

[13] = substrate: CCc1c2c(nc3ccc(OC(=O)N4CCC(N5CCCCC5)CC4)cc13)-c1cc3c(c(=O)n1C2)COC(=O)[C@]3(O)CC; experiment: purified protein, by the assay type; details: other: CPT-11 hydrolysis, hiCE

Molecule: CCc1c2c(nc3ccc(O)cc13)-c1cc3c(c(=O)n1C2)COC(=O)[C@]3(O)CC [SN-38, 7-ethyl-10-hydroxy-camptothecin]
- inhibition of topoisomerase I (topoisomerase I): potent inhibitor of topoisomerase I

Molecule: CCc1c2c(nc3ccc(OC(=O)N4CCC(N5CCCCC5)CC4)cc13)-c1cc3c(c(=O)n1C2)COC(=O)[C@]3(O)CC [CPT-11, 7-ethyl-10-[4-(1-piperidino)-1-piperidino]carbonyloxycamptothecin]
- IC50 (U373MG cells [1]; Homo sapiens, U373 MG, read-out: CPT-11 IC50, U373IRES cells (pIRESneo, no enzyme expressed)): 24 µM
- Vmax [2]: 2.11 ± 0.06 nmol/min/mg
- Vmax [3]: 1.49 ± 0.04 nmol/min/mg
- IC50 (COS7 cells; COS-7, read-out: IC50 (growth inhibition), cells expressing hCE1mut6): 12 to 20 µM
- IC50 (COS7 cells; COS-7, read-out: IC50 (growth inhibition), cells expressing rCE): 12 to 20 µM
- IC50 (COS7 cells; COS-7, read-out: IC50 (growth inhibition), cells expressing wild-type hCE1): 77.1 µM
- IC50 (U373MG cells [4]): 7.08 µM
- IC50 (Rh30 cells; Rh30, read-out: CPT-11 IC50, AdCMVhCE1m6, hCE1m6): 2 µM
- IC50 (Rh30 cells; Rh30, read-out: CPT-11 IC50, AdCMVrCE, rCE): 3.4 µM
- IC50 (Rh30 cells; Rh30, read-out: CPT-11 IC50, AdVC, no enzyme): 64.3 µM
- IC50 (Rh30 cells; Rh30, read-out: IC50, Rh30, transduced cells): 0.0006 µM
- IC50 (SK-N-As cells; read-out: CPT-11 IC50, AdCMVhCE1m6, hCE1m6): 0.5 µM
- IC50 (SK-N-As cells; read-out: CPT-11 IC50, AdCMVrCE, rCE): 0.6 µM
- IC50 (SK-N-As cells; read-out: CPT-11 IC50, AdVC, no enzyme): 31.7 µM
- IC50 (SK-N-As cells; read-out: IC50, SK-N-As, transduced cells): 0.002 µM
- Km [5]: 82.8 ± 9.6 µM
- Vmax [5]: 0.36 ± 0.017 nmol/min/mg
- Km [6]: 6.2 ± 0.63 µM
- Vmax [6]: 18 ± 0.9 nmol/min/mg
- fraction of CPT-11 converted to SN-38 [7]: less than 5%
- fraction of CPT-11 hydrolyzed to SN-38 [8]: greater than 50%
- dose-limiting toxicity [9]: myelosuppression and secretory diarrhea limit the amount of prodrug; also recorded: myelosuppression and secretory diarrhea limit the amount of drug

B1: hiCE (human intestinal carboxylesterase) (Homo sapiens) (protein)
chain: QDSASPIRTTHTGQVLGSLVHVKGANAGVQTFLGIPFAKPPLGPLRFAPPEPPESWSGVRDGTTHPAMCLQDLTAVESEFLSQFNMTFPSDSMSEDCLYLSIYTPAHSHEGSNLPVMVWIHGGALVFGMASLYDGSMLAALENVVVVIIQYRLGVLGFFSTGDKHATGNWGYLDQVAALRWVQQNIAHFGGNPDRVTIFGESAGGTSVSSLVVSPISQGLFHGAIMESGVALLPGLIASSADVISTVVANLSACDQVDSEALVGCLRGKSKEEILAINKPFKMIPGVVDGVFLPRHPQELLASADFQPVPSIVGVNNNEFGWLIPKVMRIYDTQKEMDREASQAALQKMLTLLMLPPTFGDLLREEYIGDNGDPQTLQAQFQEMMADSMFVIPALQVAHFQCSRAPVYFYEFQHQPSWLKNIRPPHMKADHGDELPFVFRSFFGGNYIKFTEEEEQLSRKMMKYWANFARNGNPNGEGLPHWPLFDQEEQYLQLNLQPAVGRALKAHRLQFWKKALPQKIQELEEPEERHTEL
- Ratio kcat/Km as compared to hCE1 [10]: 91
- time to loss of 50% of CE activity [11]: ~30 days
- average levels of CE activity ([12]; U373MG cells stably transfected with pIRESneo constructs, monitored over an extended time period): 287.6 ± 76.6 nmol/min/mg
- CE Activity ([12]; ± SD, U373MG cells stably transfected (pIRESneo) expressing the enzyme): 408.2 ± 5.6 nmol/min/mg
- sensitization of cells to CPT-11 (U373MG cells [1]; U373MG cells expressing the labelled enzyme): sensitized
- Km [13]: 3.35 ± 0.34 µM
